Experiments:
[1] = tested on: hypertension established after 5/6 nephrectomy; assay: Therapeutic effect of delayed H2 inhalation on hypertension established after 5/6 nephrectomy (tail-cuff); format: in vivo, Lewis rat; settings: N=17
Method: At about 24 hours after the final gas inhalation of 5/6 nephrectomized rats, blood pressure and heart rate were non-invasively measured using the tail-cuff pressure measurement method (BP-98A, Softron). The hemodynamics parameter was measured three times, and the median was adopted as the representative value. In order to elicit renal hypertension, 5/6 nephrectomy was carried out with slight modification to previously described methods (Nephrology (Carlton) 19, 552-561; 10.1111/nep.12279 (2014); J. Am. Soc. Nephrol. 4, 2023-2031 (1994); and Kidney Int. 40, 29-34; 10.1038/ki.1991.175 (1991).). Briefly, rats were anesthetized by isoflurane inhalation (induction at 4% and maintenance at 1.5%), and upper midline laparotomy of about 4 cm was carried out. Surgical operation was performed under a microscope, the left renal artery branch was identified, and selectively ligated with 7-0 silk at a position as close as possible to the left kidney so that macroscopic infarction is caused in about ⅔ of the left renal cortex. In the first pilot research (FIGS. 1a and 2), a high-temperature cautery pen (AA11, Bovie, Tenn., U.S.A.) was used to add the resection of the infarcted portion of the kidney. Subsequently, the right renal artery, the renal vein, and the urinary duct was ligated with 4-0 silk, and the right kidney were resected. […]

[2] = tested on: autonomic nervous system activity; assay: Spectral analysis of blood pressure variability (autonomic nervous system) in 5/6 nephrectomized rats; format: in vivo, Lewis rat
Method: Heart rate variability was analyzed using telemetry system software (Ponemah Ver. 6.3, Data Science International). Frequency domain analysis (sampling rate of 500 Hz; very low frequency (VLF) (0.05-0.25 Hz); low frequency (LF) (0.25-1.0 Hz); and high frequency (HF) (1.0-3.0 Hz)) was carried out using the arterial pressure waveform data of the first one minute of every five minutes (about 300 to 400 beats). In heart rate variability analysis, data recorded in the first 15 minutes was excluded, and effective data in the first one minute out of a block of every 5 minutes was used. LF and HF each reflected the sympathetic nerve component and the parasympathetic nerve component (Akselrod, S. et al. Power spectrum analysis of heart rate fluctuation: a quantitative probe of beat-to-beat cardiovascular control. Science 213, 220-222 (1981); Pagani, M. et al. Power spectral analysis of heart rate and arterial pressure variabilities as a marker of sympatho-vagal interaction in man and conscious dog. Circ. Res. 59, 178-193 (1986); and Montano, N. et al. Power spectrum analysis of heart rate variability to assess the changes in sympathovagal balance during graded orthostatic tilt. Circulation 90, 1826-1831 (1994)). LF/HF ratio and HF/(LF+HF) were each handled as indicators of sympathetic nerve activity and parasympathetic nerve activity (Heart rate variability: standards of measurement, physiological interpretation and clinical use. Task Force of the European Society of Cardiology and the North American Society of Pacing and Electrophysiology. Circulation 93, 1043-1065 (1996); and Pagani, M. et al. Relationship between spectral components of cardiovascular variabilities and direct measures of muscle sympathetic nerve activity in humans. Circulation 95, 1441-1448 (1997)).
H2 gas (1.3% H2+21% O2+77.7 N2) and control gas (21% O2+79% N2) were filled into gas cylinders in advance at a factory. The H2 group and the control group were allowed to inhale the H2 gas and the control gas that were mixed in advance. […]

[3] = baseline (day 0) to 4 weeks after starting H2 inhalation, vs control 5/6 nephrectomy group

In the case of `[2H][2H]` [H2 gas, Molecular hydrogen (H2)], the “duration of hypotensive effect” value ([1]; delayed inhalation, one hour daily for 4 weeks) is reported as “continued through the inhalation duration”, the “blood pressure (established hypertension)” value ([1]; inhalation started 3 weeks after 5/6 nephrectomy, one week after starting H2 inhalation, no statistically significant difference) is reported as “began to decrease” and the “decrease in HF power (normalised units), change from baseline” value [2, 3] is reported as “significantly suppressed”. The “increase in LF power (normalised units), change from baseline” value [2, 3] was “significantly suppressed” and the “increase in LF power and decrease in HF power, compared as continuous variables” value ([2]; over a 4-week time course, tendency to be suppressed) was “not significant”.

— patent US20210177889A1, “GASEOUS PHARMACEUTICAL COMPOSITION FOR HYPERTENSION THERAPY” (KEIO UNIVERSITY, priority 2019, published 2021)
